How the values were obtained:
KURAMOCHI = test: drug sensitivity score (DSS2) on cancer cell count; higher = more sensitive; extreme values may be limits of the assay; settings: 72 h
Method in brief: (§1)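 Ovarian cancer cells were grown alone or in 1:1 direct co-culture with lung or skin fibroblasts. They were plated onto 384-well plates pre-spotted acoustically with 528 approved and investigational compounds at 5 concentrations, then treated for 72 h. Cells were fixed, immunostained for CK8/18 with Hoechst, and imaged at 10× (4 fields) to count cancer cells. A drug sensitivity score (DSS2) was derived in Breeze from 4-parameter logistic fits, with screen quality checked by Z'.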

OVCAR8 = test: as above; settings: 72 h
Method in brief: as §1

[1] = co-cultured fibroblast: BJHTERT
[2] = co-cultured fibroblast: none (monoculture)

Row | Structure (SMILES) | drug sensitivity score (KURAMOCHI; [1]) [DSS] | drug sensitivity score (KURAMOCHI; co-cultured fibroblast: WI38) [DSS] | drug sensitivity score (KURAMOCHI; [2]) [DSS] | drug sensitivity score (OVCAR8; [1]) [DSS] | drug sensitivity score (OVCAR8; co-cultured fibroblast: WI38) [DSS] | drug sensitivity score (OVCAR8; [2]) [DSS]
1 | CC[C@@H]1C(=O)N(C)c2cnc(Nc3ccc(C(=O)NC4CCN(C)CC4)cc3OC)nc2N1C1CCCC1 [BI 2536] | 21.7 | 25.7 | 21.1 | 29.5 | 25.6 | 29.1
2 | COc1c(C)cnc(Cn2cnc3c(Cl)nc(N)nc32)c1C [BIIB021] | 13.6 | 21.1 | 15.6 | 21.5 | 21.8 | 24
3 | CC1(C)C(C(=O)Nc2ccc(S(=O)(=O)c3ccc(NC(=O)C4C(C)(C)C4(C)C)cc3)cc2)C1(C)C [BRD7116] | 0.5 | 1.9 | 0 | 0 | 0 | 0
4 | O=C(Nc1cccc(Nc2ncc(Br)c(NCCc3cnc[nH]3)n2)c1)N1CCCC1 [BX-912] | 10.4 | 9.6 | 8.7 | 9.1 | 7.8 | 7.3
5 | Cc1ccc(NC(=O)c2ccc(CN3CC[C@H](N(C)C)C3)c(C(F)(F)F)c2)cc1Nc1nccc(-c2cncnc2)n1 [Bafetinib] | 0.1 | 0 | 0 | 0 | 0 | 0
6 | CCS(=O)(=O)N1CC(CC#N)(n2cc(-c3ncnc4[nH]ccc34)cn2)C1 [Baricitinib] | 0 | 0 | 0 | 0 | 1.1 | 0
7 | O=C(/C=C/c1cccc(S(=O)(=O)Nc2ccccc2)c1)NO [Belinostat] | 15.1 | 18.6 | 27.5 | 17.7 | 18.2 | 22.5
8 | N#CC(c1ccnc(OCc2ccc(CN3CCOCC3)cc2)n1)c1nc2ccccc2s1 (stereo not given) [Bentamapimod] | 2.5 | 2.3 | 0.2 | 0 | 0 | 1.4
9 | C=C(c1ccc(C(=O)O)cc1)c1cc2c(cc1C)C(C)(C)CCC2(C)C [Bexarotene] | 0.4 | 0 | 15.5 | 0 | 0 | 0
10 | CC(O)(CS(=O)(=O)c1ccc(F)cc1)C(=O)Nc1ccc(C#N)c(C(F)(F)F)c1 (stereo not given) [Bicalutamide] | 0 | 0 | 0 | 0.1 | 0 | 0
11 | CCNC(=O)CCC/C=C\C[C@@H]1[C@@H](/C=C/[C@@H](O)CCc2ccccc2)[C@H](O)C[C@@H]1O [Bimatoprost] | 0 | 0 | 0 | 0 | 0 | 0
12 | Cn1cnc2c(F)c(Nc3ccc(Br)cc3F)c(C(=O)NOCCO)cc21 [Binimetinib] | 2.2 | 0 | 0 | 2.4 | 0 | 4
13 | Cc1sc2c(c1C)C(c1ccc(Cl)cc1)=N[C@@H](CC(=O)Nc1ccc(O)cc1)c1nnc(C)n1-2 [Birabresib] | 10.7 | 13 | 8.2 | 19.5 | 8.7 | 15.6
14 | CC[C@H](NC(=O)[C@H](C)NC)C(=O)N1C[C@@H](O)C[C@H]1Cc1c(-c2[nH]c3cc(F)ccc3c2C[C@@H]2C[C@H](O)CN2C(=O)[C@H](CC)NC(=O)[C@H](C)NC)[nH]c2cc(F)ccc12 [Birinapant] | 3.3 | 0 | 3.7 | 15.9 | 12.9 | 5.4
15 | Cc1c(N)nc([C@H](CC(N)=O)NC[C@H](N)C(N)=O)nc1C(=O)N[C@H](C(=O)N[C@H](C)[C@@H](O)[C@H](C)C(=O)N[C@H](C(=O)NCCc1nc(-c2nc(C(=O)NCCC[S+](C)C)cs2)cs1)[C@@H](C)O)[C@@H](OC1OC(CO)C(O)C(O)C1OC1OC(CO)C(O)C(OC(N)=O)C1O)c1cnc[nH]1 (stereo not given in full) [Bleomycin] | 13.5 | 15.4 | 18.8 | 12.1 | 11.5 | 14.5
16 | CC(C)C[C@H](NC(=O)[C@H](Cc1ccccc1)NC(=O)c1cnccn1)B(O)O [Bortezomib] | 11.5 | 25.6 | 15.7 | 17.3 | 27.3 | 26
17 | COc1cc(Nc2c(C#N)cnc3cc(OCCCN4CCN(C)CC4)c(OC)cc23)c(Cl)cc1Cl [Bosutinib] | 12.9 | 11 | 12.6 | 8.6 | 9.1 | 8.9
18 | COc1cc(N2CCC(N3CCN(C)CC3)CC2)ccc1Nc1ncc(Cl)c(Nc2ccccc2P(C)(C)=O)n1 [Brigatinib] | 0.1 | 0 | 0 | 4.3 | 7.9 | 2.2
19 | Cc1cc2c(F)c(Oc3ncnn4cc(OC[C@@H](C)O)c(C)c34)ccc2[nH]1 [Brivanib] | 0 | 0 | 0 | 0 | 0 | 0
20 | CCC/C=C/C=C/C(=O)O[C@H]1/C(=C/C(=O)OC)C[C@H]2C[C@H]([C@@H](C)O)OC(=O)C[C@H](O)C[C@@H]3C[C@H](OC(C)=O)C(C)(C)[C@](O)(C[C@@H]4C/C(=C/C(=O)OC)C[C@H](/C=C/C(C)(C)[C@]1(O)O2)O4)O3 [Bryostatin 1] | 0 | 0 | 6.4 | 2.9 | 0 | 0
21 | Nc1cc(C(F)(F)F)c(-c2cc(N3CCOCC3)nc(N3CCOCC3)n2)cn1 [Buparlisib] | 9.1 | 8 | 7.9 | 6.9 | 3.4 | 9.3
22 | Cc1nc2cccc(N)c2c(=O)n1C1CCC(=O)NC1=O (stereo not given) [CC122] | 0 | 0 | 0 | 0 | 0 | 0
23 | CCN1C(=O)CNc2ncc(-c3ccc(-c4nc[nH]n4)nc3C)nc21 [CC-115] | 6.9 | 5.7 | 15.1 | 20.1 | 4.8 | 8.7
24 | CO[C@H]1CC[C@H](N2C(=O)CNc3ncc(-c4ccc(C(C)(C)O)nc4)nc32)CC1 [CC-223] | 6.8 | 5.7 | 4.7 | 5 | 1.6 | 7.6
25 | COc1cc(C)[nH]c(=O)c1CNC(=O)c1c(C)n([C@H](C)C2CCOCC2)c2ccccc12 [CPI-360] | 0 | 5.4 | 0.7 | 0 | 0 | 0

Row | Structure (SMILES) | drug sensitivity score (KURAMOCHI; [1]) [DSS] | drug sensitivity score (KURAMOCHI; co-cultured fibroblast: WI38) [DSS] | drug sensitivity score (KURAMOCHI; [2]) [DSS] | drug sensitivity score (OVCAR8; [1]) [DSS] | drug sensitivity score (OVCAR8; co-cultured fibroblast: WI38) [DSS] | drug sensitivity score (OVCAR8; [2]) [DSS]
26 | Cc1noc2c1-c1ccccc1C(c1ccc(Cl)cc1)=N[C@H]2CC(N)=O [CPI-0610] | 0 | 8.5 | 5.7 | 10.9 | 6.5 | 13.8
27 | O=C(O)CCCCC(CCSCc1ccccc1)SCc1ccccc1 (stereo not given) [CPI-613] | 0 | 0 | 0 | 0 | 1.3 | 0
28 | CN(C)c1cc2c(cc1Sc1nc3c(N)nccc3n1CCNCC(C)(C)C)OCO2 [CUDC-305] | 12 | 14.9 | 18.4 | 16.5 | 16.7 | 23.2
29 | COc1ccc(-c2nc(N3CCOCC3)c3sc(CN(C)c4ncc(C(=O)NO)cn4)cc3n2)cn1 [CUDC-907] | 34.1 | 28.6 | 29.7 | 43.2 | 41.7 | 30
30 | CO[C@H]1C(=O)[C@]2(C)[C@@H](OC)C[C@H]3OC[C@@]3(OC(C)=O)[C@H]2[C@H](OC(=O)c2ccccc2)[C@]2(O)C[C@H](OC(=O)[C@H](O)[C@@H](NC(=O)OC(C)(C)C)c3ccccc3)C(C)=C1C2(C)C [Cabazitaxel] | 27.5 | 27.8 | 21.4 | 39.1 | 36 | 26
31 | COc1cc2nccc(Oc3ccc(NC(=O)C4(C(=O)Nc5ccc(F)cc5)CC4)cc3)c2cc1OC [Cabozantinib] | 0.4 | 0 | 0 | 0 | 0.2 | 4.4
32 | C=CC(=O)Nc1cc2c(Nc3ccc(F)c(Cl)c3)ncnc2cc1OCCCN1CCOCC1 [Canertinib] | 9.4 | 9.2 | 24.2 | 9.6 | 8.3 | 9.4
33 | CCCCCOC(=O)Nc1nc(=O)n([C@@H]2O[C@H](C)[C@@H](O)[C@H]2O)cc1F [Capecitabine] | 3.3 | 0 | 0 | 0 | 2.7 | 1.2
34 | CNC(=O)c1ccc(-c2cnc3ncc(Cc4ccc5ncccc5c4)n3n2)cc1F [Capmatinib] | 0 | 0 | 0 | 0 | 0 | 0
35 | O=C(O)C1(C(=O)O)CCC1.[NH2-].[NH2-].[Pt+2] [Carboplatin] | 13.3 | 18.1 | 22.9 | 9.4 | 8.6 | 12.3
36 | CC(C)C[C@H](NC(=O)[C@H](CCc1ccccc1)NC(=O)CN1CCOCC1)C(=O)N[C@@H](Cc1ccccc1)C(=O)N[C@@H](CC(C)C)C(=O)[C@@]1(C)CO1 [Carfilzomib] | 21.8 | 23.4 | 22.6 | 26.2 | 18 | 17.8
37 | COc1cc2c(Oc3ccc4[nH]c(C)cc4c3F)ncnc2cc1OCCCN1CCCC1 [Cediranib] | 0 | 0 | 0 | 0 | 0 | 0
38 | Cc1ccc(-c2cc(C(F)(F)F)nn2-c2ccc(S(N)(=O)=O)cc2)cc1 [Celecoxib] | 0 | 0 | 0.5 | 0.1 | 0 | 0.1
39 | CCS(=O)(=O)N1CCN(c2ccc(Nc3ncc(C(N)=O)c(NC4CC4)n3)cc2)CC1 [Cerdulatinib] | 0 | 4.3 | 1.1 | 0 | 4.3 | 1.1
40 | Cc1cc(Nc2ncc(Cl)c(Nc3ccccc3S(=O)(=O)C(C)C)n2)c(OC(C)C)cc1C1CCNCC1 [Ceritinib] | 1.3 | 0 | 2.2 | 1.8 | 0 | 3.7
41 | CC(C)[C@H]1C(=O)N[C@@H](CCCNC(=N)N)C(=O)NCC(=O)N[C@@H](CC(=O)O)C(=O)N[C@H](Cc2ccccc2)C(=O)N1C [Cilengitide] | 5.8 | 3.3 | 7.4 | 9.6 | 16.3 | 13.2
42 | N.N.[Cl][Pt][Cl] [Cisplatin] | 1.6 | 6.5 | 4.7 | 7.2 | 9.4 | 8.5
43 | Nc1nc(Cl)nc2c1ncn2[C@H]1C[C@H](O)[C@@H](CO)O1 [Cladribine] | 5.2 | 6.7 | 1.4 | 14.7 | 20.7 | 15.7
44 | Nc1nc(Cl)nc2c1ncn2[C@@H]1O[C@H](CO)[C@@H](O)[C@@H]1F [Clofarabine] | 13 | 19.7 | 10.7 | 30.7 | 28.7 | 27.7
45 | CCN(CC)CCOc1ccc(C(=C(Cl)c2ccccc2)c2ccccc2)cc1 [Clomifene] | 3.7 | 5.6 | 7.9 | 4.3 | 10.1 | 1.9
46 | O=C(c1ccc(F)c(F)c1Nc1ccc(I)cc1F)N1CC(O)([C@@H]2CCCCN2)C1 [Cobimetinib] | 11.5 | 6.4 | 7.2 | 8.4 | 2.1 | 9.6
47 | CC1(COc2ccc3c(c2)ncn3-c2ccc3cccc(N4CCC(N)CC4)c3n2)COC1 [Crenolanib] | 12.6 | 10.5 | 18 | 4.7 | 14.6 | 5.5
48 | C[C@@H](Oc1cc(-c2cnn(C3CCNCC3)c2)cnc1N)c1c(Cl)ccc(F)c1Cl [Crizotinib] | 0 | 0 | 0 | 0.7 | 0 | 0
49 | CC(C)(C)c1nc(-c2cccc(NS(=O)(=O)c3c(F)cccc3F)c2F)c(-c2ccnc(N)n2)s1 [Dabrafenib] | 0 | 0 | 0 | 0.2 | 15.2 | 0.5
50 | COc1cc2ncnc(Nc3ccc(F)c(Cl)c3)c2cc1NC(=O)/C=C/CN1CCCCC1 [Dacomitinib] | 7 | 3.7 | 8.3 | 5.5 | 0 | 3.2

Reference: the supplement of paper PMC12420376
